Test results reported in patent USRE49311E1, “Bacillus thuringiensis RTI545 compositions and methods of use for benefiting plant growth and controlling plant pests” (priority 2016, dated 2022).

Assays:
[1] = system: root knot nematode (RKN) eggs; assay: Root knot nematode egg hatching assay, 24-well plates; type: in vivo, Meloidogyne incognita/hapla; details: for % Hatching after 7 days / % Hatching after 14 days: mean of 6 replicates ± SD
Procedure: The following day, the optical density (OD) of 1:100 dilutions was measured at 600 nm to estimate the volume needed for inoculation of fermentation flasks. […] Bacteria were grown overnight (for 16 h) at 200 rpm at 30° C. Two ml of bacterial culture was saved to measure the OD and colony forming units (CFU). The remaining culture was centrifuged (2500 rpm, 15 min) and the supernatant was filter-sterilized through a 0.22 μm filter. […] The supernatant was kept at 4° C. until the initiation of the bioassay. […] A mixed culture of root knot nematodes (Meloidogyne incognita and M. hapla) was used. Nematode eggs were extracted from tomato roots by bleaching and cleaned using an Opti-prep centrifugation step followed by two washes in water. Before setting up the hatching assay, the percentage of early (eggs with a visible embryo) and late eggs (eggs with differentiated juveniles inside; […] Only fresh eggs (collected at the day of the initiation of the assay) were used for the bioassay. The assay was performed in 24-well tissue culture plates. […] Antibiotics were suspended in sterile distilled water. The final concentration of antibiotics in testing plates was 75 mg/L of penicillin and 75 mg/L of streptomycin. […] The addition of methyl cellulose increases the accuracy of adding the same number of inoculum to each treatment. The treatments were set up in 6 replications. Each plate was covered, wrapped in aluminum foil and placed in an incubator set at 25° C. […] For each time point and treatment, the percent hatching was calculated according to the formula: […] All treatments were supplemented with antibiotics (75 mg/L of penicillin and 75 mg/L of streptomycin) to prevent contamination. Data are means from 6 replicates± standard deviation of the means.

[2] = system: Southern Corn Rootworm (SCRW) larvae; assay: SCRW larvae choice feeding assay of corn seedlings; details: for Mean percent of SCRW larvae on treated portion of the filter paper / Mean percent of SCRW larvae on untreated portion of the filter paper: 3 days
Procedure: Repellency was measured using a choice in vitro plate feeding assay of corn seedlings by SCRW larvae and scored after 72 hours as the percentage of SCRW larvae on the non-treated side of the plate. In the case of no repellency, an equal distribution of 50% on both the treated and non-treated half of the plate would be expected, indicating 0% repellency. In this experiment, the Bacillus thuringiensis RTI545 and Bacillus thuringiensis subsp. kurstaki HD-1 (HD-1), were evaluated in comparison to a water control after 3 days in the assay.
The choice feeding assay for SCRW larvae using corn seedlings was also repeated to compare RTI545 to another Bacillus thuringiensis strain FD30 and kanosamine. […] Repellency was measured using a choice in vitro plate feeding assay of corn seedlings by SCRW larvae and scored after 72 hours as the percentage of SCRW larvae on the non-treated side of the plate. In the case of no repellency, an equal distribution of 50% on both the treated and non-treated half of the plate would be expected, indicating 0% repellency.

[3] = system: root knot (RKN) nematode juveniles (J2); assay: Nematode chemotaxis assay on agar plates; type: in vivo, Meloidogyne spp.; details: for Cf (chemotaxis factor) at 3 h / Cf (chemotaxis factor) at 5 h: Cf<0.5 repellent, >2 attractant
Procedure: Similarly, activity of RTI545 against nematodes may also be due to compound(s) produced by the strain. A nematode chemotaxis assay on agar plates was conducted as described below to evaluate response of root knot (RKN) nematode juveniles (J2) to different concentrations of kanosamine and RTI545 supernatant in vitro.
The test arena is shown schematically in FIG. 6. Nine-cm-diameter Petri dishes were filled with 15 ml 0.75% Phytagel (including 0.1% MgSO4.7H2O). […] was used, instead of water agar, so that nematode tracks could be observed under a microscope. Wells of 0.5 cm diameter which can accommodate approximately 50 μl of solution were made at opposite sides of the dishes at 2 cm from the center. The test samples were applied in the wells and left to diffuse for 1 hour with lids on the dishes, so a gradient around the wells could be established. Then, 75-100 J2 stage root-knot nematodes suspended in 5 μl of sterile distilled water were placed by pipette in the center 1.5 cm-diameter circle of the plate. When the surface tension of the water suspension was lost, the dishes were covered with lids and incubated in the dark on a leveled platform at 25° C. for […]. After incubation the plates were transferred to 4° C. to stop nematode movement for scoring at 2 h, 3 h and 5 h after setup. Three replicates were done for each test material.
For scoring, the test arena was divided into sixteen zones, designated as 1-8 for attractive zones and a-h for repellent zones as shown in FIG. 6A. Nematodes attracted to the test substance would tend to move to the numbered (attractive) zones, resulting in clustering along the axis parallel to the orientation of the wells. Repelled nematodes would tend to move to the lettered (repellant) zones, resulting in clustering along the axis perpendicular to the orientation of the wells. The chemotaxis factor (Cf) was calculated by dividing the total number of nematodes in the attractant zones by the total number of nematodes in the repellent zones. A Cf greater than 2 meant attraction for the nematodes, while lower than 0.5 indicated repellence, and 0.5 to 2 was considered neutral.

[4] = system: corn rootworm (Diabrotica spp.); assay: In-furrow corn field trials, corn rootworm-infested plots (18 trials, North America); type: in vivo; details: vs untreated, bifenthrin 112 g ai/Ha, RTI545 1.24 × 10^12 CFU/Ha, tefluthrin 168 g ai/Ha; for % Damage reduction, Heavy CRW Pressure / % Yield Increase, Heavy CRW Pressure: 5 trials; for % Damage reduction / % Yield Increase: 18 trials
From the text: (§1) In-furrow treatments of corn with RTI545 were studied in multiple field trials in various locations in North America to evaluate effectiveness against wireworm (Melanotus spp.) and corn rootworm (Diabrotica spp.). The effects on yield and crop damage of several treatments compared to untreated controls for the individual North America trials were aggregated and summarized as an average for the trial in the following tables as % yield increase and % reduction in damage compared to the untreated controls. Seven trials were evaluated for wireworm. Eighteen trials were evaluated for corn rootworm. Five trials with heavy damage from corn rootworm were averaged separately.

[5] = system: wireworm (Melanotus spp.); assay: In-furrow corn field trials, wireworm-infested plots (7 trials, North America); type: in vivo; details: vs untreated, average of 7 trials; bifenthrin 56 g ai/Ha, RTI545 3 × 10^11 CFU/Ha, tefluthrin 168 g ai/Ha
From the text: as §1

[6] = system: lesion nematode; assay: Soil drench tests against lesion nematode; type: in vivo, Pratylenchus penetrans
From the text: Similar tests wherein RTI545 was applied as a soil drench at the rate of 2.5×10^11 CFU/ha provided 71% reduction in lesion nematode numbers per root compared to 95% for abamectin. In soil drench tests applied to pots in the greenhouse with soil infested with lesion nematode eggs and adults (2000 individuals/pot) RTI545 at the rate of 2.5×10^13 CFU/ha provided 80% reduction in nematode numbers per root compared to 86% reduction by cadusafos.

[7] = system: soybean cyst nematode (Heterodera glycines); assay: Soybean cyst nematode soil drench assay, greenhouse; type: in vivo; details: day 70
[8] = kanosamine 100 μg/ml (alone or + FD30)
[9] = RTI545 2.5 × 10^12 CFU/ha, Abamectin 0.01 ppm, VENERATE XC 500 mg/plant
[10] = RTI545 2.5 × 10^13 CFU/ha, Abamectin 0.1 ppm

kanosamine was tested, and the “Hatching rate higher than in water control” value ([1]; after seven days) was “up to 80%”, the “% Hatching after 7 days” value ([1]; kanosamine 1 μg/ml) was 35.9 ± 5.2% and the “% Hatching after 14 days” value ([1]; kanosamine 1 μg/ml) was 40.1 ± 6.8%. For the same compound, the “% Hatching after 7 days” value ([1]; kanosamine 10 μg/ml) was 39.4 ± 3%, the “% Hatching after 14 days” value ([1]; kanosamine 10 μg/ml) was 42.1 ± 12.1% and the “% Hatching after 7 days” value ([1]; kanosamine 100 μg/ml) was 32.4 ± 4.8%. For the same compound, the “% Hatching after 14 days” value ([1]; kanosamine 100 μg/ml) was 41.6 ± 6.8%, the “Mean percent of SCRW larvae on treated portion of the filter paper” value ([2]; kanosamine 10 μg/ml) was 16.67% and the “Mean percent of SCRW larvae on untreated portion of the filter paper” value ([2]; kanosamine 10 μg/ml) was 83.33%. The “Mean percent of SCRW larvae on treated portion of the filter paper” value [2, 8] was 16.67%, the “Mean percent of SCRW larvae on untreated portion of the filter paper” value [2, 8] was 83.33% and the “Repellent effects on SCRW” value ([2]; all dilution rates between 0.1 μg/ml and 100.0 μg/ml, at 24 h, two separate bioassays) was “repellent effects”. For the same compound, the “Feeding damage on corn” value ([2]; at 3 d, choice assay) was “minimal feeding damage”, the “Repellency to SCRW” value ([2]; second test, filter paper treated with 30.0 ug/ml, out to 5 days) was “complete repellency” and the “Avoidance response of SCRW” value ([2]; treated filter paper at 10 and 100 μg/ml) was 80%. For the same compound, the “Cf (chemotaxis factor)” value ([3]; all tested kanosamine rates (1, 10 and 100 μg/ml) and all time points) was “higher than 0.5”, the “Cf (chemotaxis factor) at 3 h” value ([3]; kanosamine 1 μg/ml) was 1.0 and the “Cf (chemotaxis factor) at 5 h” value ([3]; kanosamine 1 μg/ml) was 1.0. The “Cf (chemotaxis factor) at 3 h” value ([3]; kanosamine 10 μg/ml) was 0.6, the “Cf (chemotaxis factor) at 5 h” value ([3]; kanosamine 10 μg/ml) was 0.7 and the “Cf (chemotaxis factor) at 3 h” value ([3]; kanosamine 100 μg/ml) was 0.6. For the same compound, the “Cf (chemotaxis factor) at 5 h” value ([3]; kanosamine 100 μg/ml) was 0.7.
`Cc1c(F)c(F)c(COC(=O)[C@@H]2[C@H](/C=C(\Cl)C(F)(F)F)C2(C)C)c(F)c1F` (racemic) [Tefluthrin] was tested, and the “% Damage reduction, Heavy CRW Pressure” value [4] was 52%, the “% Yield Increase, Heavy CRW Pressure” value [4] was 16% and the “% Damage reduction” value [4] was 46%. For the same compound, the “% Yield Increase” value [4] was 3% and the “% Yield Increase” value [5] was 5%.
With `Cc1c(COC(=O)[C@@H]2[C@H](/C=C(\Cl)C(F)(F)F)C2(C)C)cccc1-c1ccccc1` (racemic) [Bifenthrin] the “% Damage reduction, Heavy CRW Pressure” value [4] was 45%, the “% Yield Increase, Heavy CRW Pressure” value [4] was 11% and the “% Damage reduction” value [4] was 42%. For the same compound, the “% Yield Increase” value [4] was 4% and the “% Yield Increase” value [5] was 5%.
For abamectin, the “% Hatching after 7 days” value ([1]; abamectin 0.1 ppm) was 24.4 ± 2.9%, the “% Hatching after 14 days” value ([1]; abamectin 0.1 ppm) was 27.8 ± 5.7% and the “% Hatching after 7 days” value ([1]; abamectin 1.0 ppm) was 4.9 ± 0.9%. The “% Hatching after 14 days” value ([1]; abamectin 1.0 ppm) was 8.5 ± 1.6%, the Egg hatching inhibition ([1]; rate of 1 ppm, after 14 days) was 72% and the “Reduction in lesion nematode numbers per root” value ([6]; soil drench, RTI545 2.5×10^11 CFU/ha) was 95%. The “% Reduction of cysts” value [7, 9] was 79%, the “Number of cysts extracted” value [7, 9] was 31 and the “% Reduction of cysts” value [7, 10] was 96%. The “Number of cysts extracted” value [7, 10] was 7.
In the case of `CCOP(=O)(SC(C)CC)SC(C)CC` (stereo not shown) [cadusafos], the “Reduction in nematode numbers per root” value ([6]; soil drench to greenhouse pots, eggs and adults 2000 individuals/pot, RTI545 2.5×10^13 CFU/ha) was 86%.
With `CC(=O)O` [Acetic Acid] the “Cf (chemotaxis factor) at 3 h” value ([3]; acetic acid 1%) was 0.45, the “Cf (chemotaxis factor) at 5 h” value ([3]; acetic acid 1%) was 0.4 and the “Cf (chemotaxis factor) at 2 h” value ([3]; acetic acid 1%, data not shown) was “neutral”.
